From PubChem BioAssay (NCI)
“And” between values parts separate entries of the source, which are not always exact repeats. Identical values can stand only once.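 Values below derive from 48-hour exposures of cells grown in 96-well plates, with endpoints linearly interpolated between the two concentrations bracketing the appropriate inhibition level. At the GI50, growth is halved. TGI: concentration producing complete growth inhibition.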

Tests used:
Test in all cases: inhibition of tumour cell growth, NCI panel, 48 h
NCI-H23 lung = test system: NCI-H23 lung
UACC-62 melanoma = test system: UACC-62 melanoma
BT-549 breast = test system: BT-549 breast
OVCAR-8 ovarian = test system: OVCAR-8 ovarian
CCRF-CEM leukemia = test system: CCRF-CEM leukemia
TK-10 renal = test system: TK-10 renal
LOX IMVI melanoma = test system: LOX IMVI melanoma
EKVX NSCLC = test system: EKVX NSCLC
NCI-H226 lung = test system: NCI-H226 lung
786-0 renal = test system: 786-0 renal

Row | SMILES | TGI (NCI-H23 lung) | TGI (UACC-62 melanoma) | TGI (BT-549 breast) | TGI (OVCAR-8 ovarian) | TGI (CCRF-CEM leukemia) | TGI (TK-10 renal) | TGI (LOX IMVI melanoma) | TGI (EKVX NSCLC) | TGI (NCI-H226 lung) | TGI (786-0 renal) | GI50 (NCI-H23 lung) | GI50 (UACC-62 melanoma) | GI50 (BT-549 breast) | GI50 (OVCAR-8 ovarian) | GI50 (CCRF-CEM leukemia) | GI50 (TK-10 renal) | GI50 (LOX IMVI melanoma) | GI50 (EKVX NSCLC) | GI50 (NCI-H226 lung) | GI50 (786-0 renal)
1 | COc1ccc(/C=C\c2cc(OC)c(OC)c(OC)c2)cc1OCC(=O)O | 12.5 µM | > 100 µM | > 100 µM | > 58.2 µM | > 100 µM | > 100 µM | > 100 µM | > 100 µM | 48.2 µM | > 100 µM | – | – | – | – | – | – | – | – | – | –
2 | O=[N+]([O-])c1ccccc1N=Nc1c(O)[nH]c2c(Cl)cc(Cl)cc12 | > 100 µM | > 100 µM | 30.5 µM | > 100 µM | > 100 µM | 96.2 µM | > 100 µM | 99.5 µM | > 100 µM | 39 µM | – | – | – | – | – | – | – | – | – | –
3 | CO[C@@H]1CC[C@]2(C)OC[C@H](C)[C@@H]3C[C@@H](C)[C@@H](OC(C)=O)[C@@H]4[C@H]3[C@@H]2O[C@H]4C[C@@]1(C)O | > 100 µM | > 100 µM | > 100 µM | > 100 µM | > 100 µM | > 100 µM | > 100 µM | > 100 µM | > 100 µM | > 100 µM | > 100 µM | > 100 µM | > 100 µM | > 100 µM | > 100 µM | > 100 µM | > 100 µM | > 100 µM | > 100 µM | > 100 µM
4 | COc1ccc2c(=O)oc3c(OC)cc(CCN(C)C)c4c(=O)oc1c2c34 | 32.7 µM and 17.5 µM | 31.7 µM and 16.6 µM | 15.4 µM | 30.7 µM and 17.2 µM | 3.5 µM and 3.06 µM | 37.1 µM and 16.7 µM | 31.3 µM and 18 µM | 34.9 µM and 15.9 µM | 33.2 µM and 50 µM | 14.2 µM and 1.51 µM | – | – | – | – | – | 20.2 µM and 8.68 µM | 17 µM and 7.81 µM | 17.8 µM and 7.55 µM | – | 3.66 µM and 0.762 µM
5 | CN(Cc1cnc2nc(N)nc(N)c2n1)c1ccc(C(=O)N[C@@H](CCS(=O)(=O)O)C(=O)O)cc1 | > 100 µM | > 100 µM | > 100 µM | > 55.3 µM | > 100 µM | > 100 µM | > 100 µM | > 100 µM | > 100 µM | > 100 µM | – | – | – | – | – | – | – | – | – | 0.0955 µM
6 | COC(=O)/C=C/c1cc(OC(C)=O)c2c(c1)C(C(=O)OC)C(c1ccc(OC(C)=O)c(OC(C)=O)c1)O2 (stereo not given) | > 100 µM | 21.8 µM | 2.27 µM | > 72.9 µM | > 100 µM | > 93.2 µM | > 83.3 µM | > 86 µM | 23.2 µM | > 56.8 µM | 0.171 µM | 0.298 µM | 0.127 µM | 0.224 µM | 0.0404 µM | 8.98 µM | 0.0597 µM | 2.28 µM | 3.68 µM | 0.488 µM
7 | CCOC(=O)Nc1c(C)nc2ccccn12 | > 100 µM | > 100 µM | > 100 µM | > 100 µM | > 100 µM | > 100 µM | > 100 µM | > 100 µM | > 100 µM | > 100 µM | > 100 µM | > 100 µM | > 100 µM | > 100 µM | > 100 µM | > 100 µM | > 100 µM | > 100 µM | > 100 µM | > 100 µM
8 | CCCCCCn1c(-c2ccc(C(=O)O/N=C(\N)c3ccc4c(c3)OCO4)cc2)nc(-c2ccccc2)c1-c1ccccc1 | 3.05 µM | 10.5 µM | 5.41 µM | 7.09 µM | 4.25 µM | 3.61 µM | 0.329 µM | 3.96 µM | 15.9 µM | 2.56 µM | 1.48 µM | 2.87 µM | 2.02 µM | 2.46 µM | 1.29 µM | 1.94 µM | 0.173 µM | 1.76 µM | 3.47 µM | 1.02 µM
9 | CCCCCCCCSC1=C(Cl)C(=O)C(OC)=C(OC)C1=O | 31.5 µM | 24 µM | 31.4 µM | 30.9 µM | > 100 µM | 28.5 µM | 24 µM | 24.9 µM | 34.6 µM | 30 µM | – | – | – | – | – | – | – | – | – | –
10 | COc1ccc(Cl)cc1NC(=O)c1ccc(NC2=C(Cl)C(=O)N(Cc3ccccc3)C2=O)cc1 | > 100 µM | > 100 µM | > 100 µM | > 100 µM | 94.5 µM | > 100 µM | > 100 µM | > 100 µM | > 100 µM | > 100 µM | 55.8 µM | 33.7 µM | 28.7 µM | 19.4 µM | 3.99 µM | > 100 µM | 8.5 µM | > 100 µM | > 100 µM | > 100 µM
11 | O=C(Nc1nc(-c2c[nH]c3ccccc23)cs1)c1n[nH]c(=O)c2ccccc12 | > 100 µM | > 100 µM | > 81.2 µM | > 67.6 µM | 98.8 µM | > 100 µM | 17.9 µM | > 100 µM | 89.8 µM | > 47.5 µM | 24.2 µM | 1.45 µM | 3.89 µM | 2.26 µM | 1.27 µM | 14.4 µM | 0.644 µM | 51.3 µM | 12.3 µM | 1.48 µM
